Reference: patent publication US7408359B2, “Current measuring device having artificial lipid bilayer membrane” (Japan Science and Technology Agency, priority 2003, dated 2008)

Key:
[1] = biological target: T1, ryanodine receptor channel (Ca- channel) (Sus scrofa, UniProt A0A5G2R1W3); assay: Single channel current measurement and fluorescence observation of ryanodine receptor channel in artificial lipid bilayer membrane; format: biochemical, swine; settings: 1 to 10 nM Cy5-labeled ryanodine added from the upside of the membrane; 500 mM Na-methanesulfonic acid, 40 mM Hepes (pH 7.4), 0.01-0.1 μM Ca2+
T1 construct: a cell membrane vesicle sampled from a swine cardiac muscle; from tissue; host or cells: swine cardiac muscle membrane vesicles
From the text: (§1) In the present Example, a current measuring device according to the present invention (FIG. 5) was used. […] In the bottom 9, a small hole 4 whose diameter was 0.15 mm was provided. A square glass plate whose thickness was 0.17 mm and each side was 18 mm was used as the bottom plate 6. Further, an agarose gel layer whose thickness was 100 nm was formed on the bottom plate 6 as the support layer 5 so as to be positioned in a face contacting the upper solution chamber 3. […] In measuring a current, a patch-clamp amplifier (CEZ-2400 produced by Nihon Kohden Corporation) was used, and the measured current was recorded on a DAT tape by using a DAT recorder. […]
Thereafter, solution obtained by dissolving phosphatidylcholine in decane so that its concentration was 20 mg/ml was applied to the small hole 4 provided in the bottom 9 of the upper solution chamber 3. […] At this time, the ryanodine receptor channel on the vesicle membrane was fluorescence-labeled with fluorescent dye Cy5 (product of Amensham Pharmacia) in advance, and then the cell membrane vesicle was fused with the artificial lipid bilayer membrane 2. The fluorescence labeling of the ryanodine receptor channel was carried out as follows: a corresponding specific monoclonal antibody was labeled with Cy5, and the thus labeled antibody was coupled with the ryanodine receptor channel. […]

[2] = biological target: T2, plain muscle Ca2+ dependency K+ channel (Bos taurus, UniProt Q28204); assay: Single channel current measurement of plain muscle Ca2+ dependency K+ channel in artificial lipid bilayer membrane; format: biochemical, bovine; settings: 100 mM KCl, 10 mM Hepes (pH 7.4)
T2 construct: inserting a K^+ channel on the vesicle membrane into the artificial lipid bilayer membrane 2; from tissue; host or cells: bovine tracheal smooth (plain) muscle membrane vesicles
From the text: as §1
Thereafter, lipid solution obtained by dissolving phosphatidylcholine (product of Sigma) in decane so that its concentration was 20 mg/mL was applied to the small hole 4 provided in the bottom 9 of the upper solution chamber 3. […] By using the thus produced current measuring device, a current was measured with time.
Subsequently, only the CaCl2 concentration of the aqueous solution with which the upper solution chamber 3 and the lower solution chamber 8 were filled was changed into 1 mM. Under this condition, a current measuring device was produced in the same manner, and a current was measured.

T2 sequence (Q28204 whole entry): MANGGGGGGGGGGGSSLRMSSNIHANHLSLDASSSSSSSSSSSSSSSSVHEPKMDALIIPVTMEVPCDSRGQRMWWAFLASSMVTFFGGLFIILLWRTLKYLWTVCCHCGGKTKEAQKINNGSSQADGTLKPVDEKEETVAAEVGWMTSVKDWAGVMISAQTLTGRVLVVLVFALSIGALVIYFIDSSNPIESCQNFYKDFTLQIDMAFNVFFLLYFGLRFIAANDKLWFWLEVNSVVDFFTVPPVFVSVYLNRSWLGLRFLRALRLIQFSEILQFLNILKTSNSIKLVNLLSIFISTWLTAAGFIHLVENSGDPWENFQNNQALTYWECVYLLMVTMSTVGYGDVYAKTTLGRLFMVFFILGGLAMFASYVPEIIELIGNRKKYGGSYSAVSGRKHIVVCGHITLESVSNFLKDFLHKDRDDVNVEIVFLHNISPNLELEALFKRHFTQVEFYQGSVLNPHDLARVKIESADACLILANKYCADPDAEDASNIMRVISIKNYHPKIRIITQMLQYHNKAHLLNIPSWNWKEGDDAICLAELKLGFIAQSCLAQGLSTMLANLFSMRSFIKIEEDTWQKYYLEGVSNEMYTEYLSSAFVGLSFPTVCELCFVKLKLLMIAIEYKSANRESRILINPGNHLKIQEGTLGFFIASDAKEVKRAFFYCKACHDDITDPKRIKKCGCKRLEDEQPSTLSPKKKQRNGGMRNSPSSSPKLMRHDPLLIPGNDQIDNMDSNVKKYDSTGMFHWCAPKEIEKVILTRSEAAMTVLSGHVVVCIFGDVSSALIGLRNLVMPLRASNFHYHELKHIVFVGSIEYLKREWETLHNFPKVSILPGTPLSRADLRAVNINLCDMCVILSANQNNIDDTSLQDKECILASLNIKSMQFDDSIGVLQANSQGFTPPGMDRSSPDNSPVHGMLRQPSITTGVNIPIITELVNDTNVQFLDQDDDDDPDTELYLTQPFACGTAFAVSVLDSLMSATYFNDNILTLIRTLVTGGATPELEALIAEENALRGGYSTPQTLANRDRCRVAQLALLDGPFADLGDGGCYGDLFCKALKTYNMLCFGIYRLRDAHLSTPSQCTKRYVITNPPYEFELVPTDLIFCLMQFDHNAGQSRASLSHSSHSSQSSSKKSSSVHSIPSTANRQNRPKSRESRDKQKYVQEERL
T2 sequence (Q28067 whole entry partner): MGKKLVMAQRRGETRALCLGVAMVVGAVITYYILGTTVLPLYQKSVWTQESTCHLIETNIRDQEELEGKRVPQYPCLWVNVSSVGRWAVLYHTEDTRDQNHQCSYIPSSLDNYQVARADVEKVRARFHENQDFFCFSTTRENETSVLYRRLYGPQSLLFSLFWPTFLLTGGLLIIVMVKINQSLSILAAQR

Compound | channel activity (current trace after addition) [1] | state of the ion channel (current trace) ([2]; CaCl2 1 mM) | state of the ion channel (current trace) ([2]; CaCl2 10^-9 M)
ryanodine | activation of the ryanodine receptor channel occurs |  | 
[Ca+2].[Cl-].[Cl-] [CaCl2] |  | more likely to open | closed
